Measured values published in US20080089845A1, “METHODS FOR DETERMINING EFFECTIVE DOSES OF FATTY ACID AMIDE HYDROLASE INHIBITORS IN VIVO” (N.V. Organon, priority 2006, published 2008).

Key:
plasma OEA levels = experiment: Time course of plasma OEA levels after oral administration to cynomolgus monkeys; assay type: in vivo
Method: Afterwards, a time course of plasma OEA levels was determined for each subject by obtaining a plasma sample at 0.5, 1, 2, 4, 8, 12, and 24 hours post-administration.

OEA plasma levels = experiment: Plasma/serum OEA and PEA levels by LC-MS/MS after oral administration in rats; assay type: in vivo; details: rat, 30 mg/kg p.o. vs 10 mg/kg p.o.
Method: At 0, 1, 2, 4, 8, 12, and 24 hours post-administration, animals were sacrificed to collect serum and brain tissue samples. For each time point, FAAH activity was determined in brain tissue homogenates by essentially the same method as that described in Fegley et al. (2005), J. Pharm. and Exp. Ther., 313:352-358. We observed complete FAAH inhibition at 10 mg/kg and partial FAAH inhibition at 1 mg/kg (FIG. 1).
Serum OEA and PEA levels were determined by LC-MS/MS. As shown in FIGS. 2 (A-B), plasma levels of both OEA and PEA were highly correlated with FAAH inhibition in the brain (R^2=0.9459 and 0.929, respectively). In addition, changes in OEA plasma levels correlated with changes in anandamide (AEA) levels in the brain (FIG. 3; R^2=0.9363), and changes in AEA brain levels correlated with brain FAAH inhibition (FIG. 4; R^2=0.9996). […] AUCs were determined as the sum of the area under the plasma concentration curve of the analyte measured (minus the endogenous level), or as a % FAAH inhibition versus time curve from time zero to the last time point collected by the trapezoidal rule.

[1] = system: OEA and PEA levels in plasma; experiment: 28-day toxicokinetic (TK) study in rodents, plasma OEA and PEA levels; assay type: in vivo, rat; details: rodent TK study, 50, 275 and 1500 mg/kg
From the text: We carried out toxicokinetic (TK) studies in rodents. […] AEA was included in this assay to examine whether basal or elevated levels of AEA could be detected.

FAAH = biological target: T1, FAAH (Mus musculus, UniProt O08914); experiment: Escalating oral dose study in mice, brain FAAH activity; assay type: in vivo
T1 construct: brain FAAH Activity was also evaluated in an escalating oral dose study in mice; from tissue; host or cells: mouse brain
T1 sequence (O08914 1-579): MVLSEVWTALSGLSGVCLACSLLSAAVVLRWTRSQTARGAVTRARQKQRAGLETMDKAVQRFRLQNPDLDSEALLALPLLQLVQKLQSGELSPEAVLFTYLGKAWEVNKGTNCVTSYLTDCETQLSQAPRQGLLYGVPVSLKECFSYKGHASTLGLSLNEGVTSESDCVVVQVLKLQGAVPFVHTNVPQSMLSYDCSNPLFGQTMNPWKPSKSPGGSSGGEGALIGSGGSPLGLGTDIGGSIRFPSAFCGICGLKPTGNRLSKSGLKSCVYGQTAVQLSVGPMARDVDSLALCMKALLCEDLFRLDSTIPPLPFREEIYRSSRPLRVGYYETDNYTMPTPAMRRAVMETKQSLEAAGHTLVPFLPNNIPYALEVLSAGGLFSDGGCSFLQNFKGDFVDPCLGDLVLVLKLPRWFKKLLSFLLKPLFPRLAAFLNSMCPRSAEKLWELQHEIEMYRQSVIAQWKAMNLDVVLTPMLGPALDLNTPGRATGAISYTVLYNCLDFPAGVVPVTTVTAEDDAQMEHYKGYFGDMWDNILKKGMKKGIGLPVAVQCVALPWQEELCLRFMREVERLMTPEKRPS
Method: Finally, the correlation between increases in plasma OEA levels and brain FAAH Activity was also evaluated in an escalating oral dose study in mice. Inhibition of FAAH activity was maximal at 50 mg/kg p.o. and partial 10 mg/kg p.o. (FIG. 12). Increases in plasma OEA levels directly correlated with brain FAAH inhibition (FIG. 13).

NC(=O)c1cccc(-c2cccc(OC(=O)NC3CCCCC3)c2)c1 [KDS-4103]
inhibition of FAAH activity in primates, concluded from plasma OEA (plasma OEA levels; 50-1500 mg/kg): highly effective
time of peak plasma OEA levels (plasma OEA levels; each dose of 50-1500 mg/kg): four
plasma OEA levels after the peak (plasma OEA levels; each dose of 50-1500 mg/kg, up to 24 hours): remained elevated at all subsequent time points examined
plasma levels of OEA at 30 mg/kg compared with 10 mg/kg (OEA plasma levels): did not increase plasma levels of OEA above those observed at 10 mg/kg
FAAH inhibition inferred from OEA and PEA increases [1]: complete across all doses
Increases in OEA and PEA levels across the dose range [1]: similar
Inhibition of FAAH activity in brain (FAAH; 10 mg/kg p.o.): partial
Inhibition of FAAH activity in brain (FAAH; 50 mg/kg p.o.): maximal
